This experiment has as its target T1, rat GHS-receptor (GHR-R) (Rattus norvegicus, UniProt O08725).
T1 construct: A full-length cDNA for rat GHR-R was obtained by RT-PCR; expressed in transfected cells
In words: Ca-releasing activity (increase in intracellular calcium) in CHO-GHSR62 cells, FLIPR. The class given is cell-based. An excerpt:
To assay an increase in the intracellular calcium ion concentration (Ca-releasing activity) occurring upon binding of a GH secretagogue (GHS) to GHS-receptor (GHR-R), a cell strain expressing rat GHR-R was created in the following manner. A full-length cDNA for rat GHR-R was obtained by RT-PCR (reverse transcriptase-polymerase chain reaction) where a cDNA derived from rat brain was used as template. From the nucleotide sequence of known rat GHR-R [K. K. Mckee, et al, Molecular Endocrinology 11, 415-423 (1997)], sense and antisense primers consisting of the following nucleotide sequences were synthesized.
The amplified cDNA was ligated to vector pcDNAIII (Invitrogen) to construct expression vector GHSR-pcDNAIII. CHO cells were transformed via the expression vector, and the transformed cells stably expressing GHR-R were selected in a medium containing 1 μg/ml G418. […] A change in the intracellular calcium ion concentration (Ca-releasing activity) was measured by an FLIPR system (Molecular Device). Before this measurement, 4×10^4 CHO-GHSR62 cells were put to a 96-well microplate with black wall (Corning Co., Ltd) and cultured for 12 to 15 hours. Then, the cells were incubated with 4 μM fluorescent Fluo4 (Molecular Probe Co., Ltd) for 1 hour and washed four times with Hank's BSS (Hank's Balanced Salt Solution) containing 20 mM Hepes ([N-2-hydroxyethyl]-piperazine-N-[2-ethanesulfonic acid]) and 2.5 mM probenecid, and the Ca-releasing activity was assayed by adding a sample and measuring a change in the fluorescence.
Peptide fragments obtained by partially digested the rat- and human-derived ghrelins by various proteases, or chemically synthesized peptides, were examined for their Ca releasing activity in order to determine a core amino acid sequence and the optimum chain length of a modifying fatty acid necessary for Ca-releasing activity.
The Ca-increasing activities of the ghrelin derivative peptide-type compounds synthesized in Example 10 and the natural ghrelin peptide were measured in the same manner as in Example 1.
In this examination, the intracellular Ca-releasing activity in CHO cells expressing rat GSH receptor was used as the indicator.
For orientation: Calcium flux is commonly read through the fluorescence of an indicator in the cells.

Where [1] appears, read: CHO-GHSR62 cells (CHO cells expressing rat GHS receptor), FLIPR, read-out: Ca-releasing activity EC50.

14 compounds from patent publication US7385026B1, “Modified ghrelin polypeptides” (priority 1999, dated 2008) can be followed below.

Each structure is given as a SMILES string. Like-named read-outs stand apart in the source and are kept apart here. Square brackets hold non-standard residues; d marks the D form. Peptide text beside a SMILES is read from it. * marks the point of attachment. Octanoyl = CCCCCCCC(=O)*; Aib = CC(C)(N)C(=O)O; Ava = NCCCCC(=O)O; Octyl = CCCCCCCC*

T1 sequence (O08725 whole entry): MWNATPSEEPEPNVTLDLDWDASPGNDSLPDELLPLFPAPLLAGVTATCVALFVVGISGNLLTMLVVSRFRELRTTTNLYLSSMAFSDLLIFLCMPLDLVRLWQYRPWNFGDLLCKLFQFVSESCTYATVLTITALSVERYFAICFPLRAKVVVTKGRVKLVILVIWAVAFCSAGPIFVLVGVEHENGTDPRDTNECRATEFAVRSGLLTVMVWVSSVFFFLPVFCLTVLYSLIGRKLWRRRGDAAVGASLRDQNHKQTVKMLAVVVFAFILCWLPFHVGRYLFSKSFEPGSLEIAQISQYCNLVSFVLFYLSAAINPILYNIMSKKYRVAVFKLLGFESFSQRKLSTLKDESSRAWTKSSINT

A word on the EC50: it is the concentration that produces a half-maximal response. In the case of `CCCCCCCC(=O)OC[C@H](NC(=O)[C@H](CO)NC(=O)CN)C(=O)N[C@@H](Cc1ccccc1)C(=O)N[C@@H](CC(C)C)C(=O)N[C@@H](CO)C(=O)N1CCC[C@H]1C(=O)N[C@@H](CCC(=O)O)C(=O)N[C@@H](Cc1c[nH]cn1)C(=O)N[C@@H](CCC(N)=O)C(=O)N[C@@H](CCCNC(=N)N)C(=O)N[C@H](C(=O)N[C@@H](CCC(N)=O)C(=O)N[C@@H](CCC(N)=O)C(=O)N[C@@H](CCCNC(=N)N)C(=O)O)C(C)C` [Compound 20, hGhrelin (1-15)], the EC50 under setting [1] was found to be 7 nM.

`CCCCCCCC(=O)OC[C@H](NC(=O)[C@H](CC(C)C)NC(=O)CN)C(=O)N[C@@H](Cc1ccccc1)C(=O)N[C@@H](CC(C)C)C(=O)N[C@@H](CO)C(=O)N1CCC[C@H]1C(N)=O` [Compound 44, [Leu^2]-Ghrelin (1-7)-amide] (H-GLS(Octanoyl)FLSP-NH2): the EC50 under setting [1] worked out at 42 nM.

Regarding `CCCCCCCC(=O)OC[C@H](NC(=O)[C@H](CO)NC(=O)CNC(=O)[C@@H](N)Cc1ccc(O)cc1)C(=O)N[C@@H](Cc1ccccc1)C(=O)N[C@@H](CC(C)C)C(=O)N[C@@H](CO)C(=O)N1CCC[C@H]1C(=O)N[C@@H](CCC(=O)O)C(=O)N[C@@H](Cc1c[nH]cn1)C(=O)N[C@@H](CCC(N)=O)C(=O)N[C@@H](CCCCN)C(=O)N[C@@H](C)C(=O)N[C@@H](CCC(N)=O)C(=O)N[C@@H](CCC(N)=O)C(=O)N[C@@H](CCCNC(=N)N)C(=O)N[C@@H](CCCCN)C(=O)N[C@@H](CCC(=O)O)C(=O)N[C@@H](CO)C(=O)N[C@@H](CCCCN)C(=O)N[C@@H](CCCCN)C(=O)N1CCC[C@H]1C(=O)N1CCC[C@H]1C(=O)N[C@@H](C)C(=O)N[C@@H](CCCCN)C(=O)N[C@@H](CC(C)C)C(=O)N[C@@H](CCC(N)=O)C(=O)N1CCC[C@H]1C(=O)N[C@@H](CCCNC(=N)N)C(=O)O` [Compound 42, [N-Tyr]-rGhrelin], under setting [1], the half-maximal effective concentration (EC50) came to 120 nM.

For the compound `CCCCCCCSSC[C@H](NC(=O)[C@H](CO)NC(=O)CN)C(=O)N[C@@H](Cc1ccccc1)C(=O)N[C@@H](CC(C)C)C(=O)N[C@@H](CO)C(=O)N1CCC[C@H]1C(=O)N[C@@H](CCC(=O)O)C(=O)N[C@@H](Cc1c[nH]cn1)C(=O)N[C@@H](CCC(N)=O)C(=O)N[C@@H](CCCNC(=N)N)C(=O)N[C@H](C(=O)N[C@@H](CCC(N)=O)C(=O)N[C@@H](CCC(N)=O)C(=O)N[C@@H](CCCNC(=N)N)C(=O)N[C@@H](CCCCN)C(=O)N[C@@H](CCC(=O)O)C(=O)N[C@@H](CO)C(=O)N[C@@H](CCCCN)C(=O)N[C@@H](CCCCN)C(=O)N1CCC[C@H]1C(=O)N1CCC[C@H]1C(=O)N[C@@H](C)C(=O)N[C@@H](CCCCN)C(=O)N[C@@H](CC(C)C)C(=O)N[C@@H](CCC(N)=O)C(=O)N1CCC[C@H]1C(=O)N[C@@H](CCCNC(=N)N)C(=O)O)C(C)C` [Compound 57], under setting [1], the EC50 was found to be 1.4 nM.

In the case of `CCCCCCCNC(=O)C[C@H](NC(=O)[C@H](CO)NC(=O)CN)C(=O)N[C@@H](Cc1ccccc1)C(=O)N[C@@H](CC(C)C)C(=O)N[C@@H](CO)C(=O)N1CCC[C@H]1C(=O)N[C@@H](CCC(=O)O)C(=O)N[C@@H](Cc1c[nH]cn1)C(=O)N[C@@H](CCC(N)=O)C(=O)N[C@@H](CCCNC(=N)N)C(=O)N[C@H](C(=O)N[C@@H](CCC(N)=O)C(=O)N[C@@H](CCC(N)=O)C(=O)N[C@@H](CCCNC(=N)N)C(=O)N[C@@H](CCCCN)C(=O)N[C@@H](CCC(=O)O)C(=O)N[C@@H](CO)C(=O)N[C@@H](CCCCN)C(=O)N[C@@H](CCCCN)C(=O)N1CCC[C@H]1C(=O)N1CCC[C@H]1C(=O)N[C@@H](C)C(=O)N[C@@H](CCCCN)C(=O)N[C@@H](CC(C)C)C(=O)N[C@@H](CCC(N)=O)C(=O)N1CCC[C@H]1C(=O)N[C@@H](CCCNC(=N)N)C(=O)O)C(C)C` [Compound 55, [Asp^3(NH-Heptyl)]-hGhrelin], the EC50 under setting [1] is 11 nM.

As to `CCCCCCCC(=O)OC[C@H](NC(=O)CCCCN)C(=O)N[C@@H](Cc1ccccc1)C(=O)N[C@@H](CC(C)C)C(=O)N[C@@H](CO)C(=O)N1CCC[C@H]1C(N)=O` [Compound 40, [N-Aminopentanoyl]-Ghrelin (3-7)-amide] (H-[Ava]S(Octanoyl)FLSP-NH2), under setting [1], the EC50 came to 3.4 nM.

In the case of `CCCCCCCCOC[C@H](NC(=O)CCCCN)C(=O)N[C@@H](Cc1ccccc1)C(=O)N[C@@H](CC(C)C)C(=O)NC` [Compound 82, [N-Aminopentanoyl, Ser^3(Octyl)]-Ghrelin (3-5)-methylamide], under setting [1], the half-maximal effective concentration (EC50) was 12 nM.

In the case of `CCCCCCCCOC[C@H](NC(=O)CCCCN)C(=O)N[C@@H](Cc1ccccc1)C(=O)N[C@@H](CCCCN)C(N)=O` [Compound 76, [N-Aminopentanoyl, Ser^3(Octyl), Lys^5]-Ghrelin (3-5)-amide], under setting [1], the EC50 was 12 nM.

Turning to `CCCCCCCC(=O)OC[C@H](NC(=O)[C@H](CO)NC(=O)CN)C(=O)N[C@@H](Cc1ccccc1)C(=O)N[C@@H](CC(C)C)C(=O)N[C@@H](CO)C(=O)N1CCC[C@H]1C(=O)N[C@@H](CCC(=O)O)C(=O)N[C@@H](Cc1cnc[nH]1)C(=O)N[C@@H](CCC(N)=O)C(=O)N[C@@H](CCCNC(=N)N)C(=O)N[C@H](C(=O)N[C@@H](CCC(N)=O)C(=O)N[C@@H](CCC(N)=O)C(=O)N[C@@H](CCCNC(=N)N)C(=O)N[C@@H](CCCCN)C(=O)N[C@@H](CCC(=O)O)C(=O)N[C@@H](CO)C(=O)N[C@@H](CCCCN)C(=O)N[C@@H](CCCCN)C(=O)N1CCC[C@H]1C(=O)N1CCC[C@H]1C(=O)N[C@@H](C)C(=O)N[C@@H](CCCCN)C(=O)N[C@@H](CC(C)C)C(=O)N[C@@H](CCC(N)=O)C(=O)N1CCC[C@H]1C(=O)N[C@@H](CCCNC(=N)N)C(=O)O)C(C)C` [Compound 1, human Ghrelin], the EC50 by setting is: (Ca-releasing activity (EC50, nM), Table 3, Example 9: protease fragments or synthetic peptides, CHO-GHSR62 cells) 2.6 nM; (Ca-releasing activity EC50, CHO-GHSR62 cells (CHO cells expressing rat GHS receptor), FLIPR) 1.3 nM.

With `CCCCCCCC(=O)OC[C@H](NC(=O)[C@H](CO)NC(=O)CN)C(=O)N[C@@H](Cc1ccccc1)C(=O)N[C@@H](CCCCN)C(N)=O` [Compound 38, [Lys^5]-Ghrelin (1-5)-amide] (H-GSS(Octanoyl)FK-NH2), the “Ca-releasing activity relative to ghrelin (1-4) before addition of lysine” value is recorded as “about 50 times”. In addition, the EC50 under setting [1] is 10 nM.

As to `CCCCCCCCOC[C@H](NC(=O)[C@H](Cc1c[nH]cn1)NC(=O)C(C)(C)N)C(=O)N[C@@H](Cc1ccccc1)C(=O)N[C@@H](CCCCN)C(N)=O` [Compound 78, [Aib^1, His^2, Ser^3(Octyl), Lys^5]-Ghrelin (1-5)-amide] (H-[Aib]HS(Octyl)FK-NH2), the EC50 under setting [1] was 34 nM.

Consider `CCCCCCCCSC[C@H](NC(=O)[C@H](CO)NC(=O)CN)C(=O)N[C@@H](Cc1ccccc1)C(=O)N[C@@H](CC(C)C)C(=O)N[C@@H](CO)C(=O)N1CCC[C@H]1C(N)=O` [Compound 48, [Cys^3(Octyl)]-Ghrelin (1-7)-amide] (H-GSC(Octyl)FLSP-NH2), for which, under setting [1], the EC50 came to 7.4 nM.

Regarding `CCCCCCCC(=O)OC[C@H](NC(=O)[C@H](CO)NC(=O)CN)C(=O)N[C@@H](Cc1ccccc1)C(=O)N[C@@H](CC(C)C)C(=O)N[C@@H](CCCCN)C(N)=O` [Compound 37, [Lys^6]-Ghrelin (1-6)-amide] (H-GSS(Octanoyl)FLK-NH2), the concentration for a half-maximal effect (EC50) under setting [1] stood at 12 nM.

As to `CCCCCCCC(=O)OC[C@H](NC(=O)[C@H](CO)NC(=O)CN)C(=O)N[C@@H](Cc1ccccc1)C(=O)N[C@@H](CC(C)C)C(N)=O` [Compound 32, Ghrelin (1-5)-amide] (H-GSS(Octanoyl)FL-NH2), the “Ca-releasing activity relative to ghrelin(1-4) amide” value is “about 26 times”. The EC50 under setting [1] came out at 6.2 nM.
